Data from patent publication US20160041146A1 (priority 2014, published 2016).
Read-outs that look alike come from different tables or passages of the source.

Type: in vivo, human
Conditions: for Urine concentration (median): 50 subjects; for μA, population mean of ln(PMET/SMET), ratio of primary (parent) to secondary metabolite concentration in urine: large batch of historical UDT patient data (for quetiapine: model A), the σA is the standard deviation
From the text: Determining the amount of a drug in fluid of the subject may be accomplished by use of any method known to those skilled in the art. Non-limiting examples for determining the amount of a drug in fluid of a subject include fluorescence polarization immunoassay (“FPIA,” Abbott Diagnostics), mass spectrometry (MS), gas chromatography-mass spectrometry (GC-MS-MS), liquid chromatography-mass spectrometry (LC-MS-MS), and the like. In one embodiment, LC-MS-MS methods known to those skilled in the art are used to determine a raw level, amount or concentration of a drug in urine of the subject. In one embodiment, a raw level or concentration of a drug in urine of a subject is measured and reported as a ratio, percent, or in relationship to the amount of fluid. The amount of fluid may be expressed as a unit volume, for example, in L, mL, μL, pL, ounce, etc. In one embodiment, the raw amount of a drug in urine of a subject may be expressed as an absolute level or value, for example, in g, mg, μg, ng, pg, etc.
In an embodiment, the raw primary metabolite and secondary metabolite concentrations measured in urine of the subject are transformed and normalized (hereafter “Equation 3”): […]
where ln is the natural log, PMET is the concentration of the primary metabolite also referred to as the parent drug in […]; and SMET is the concentration of the secondary metabolite in […]. The value is then transformed into its corresponding value on the standard normal (e.g., Gaussian) distribution using (hereafter “Equation 4): […]
where NORMSTD(RATIO) is the standardized normal value (also referred to herein as the Z-score) and μA and σA are the mean and the standard deviation respectively of the population used to construct the model described in Equation 3. The resulting mean and standard deviation of the standardized normal distribution, NORMSTD(RATIO), are “0” and “1” respectively.
The Data Sets used to establish the ratio models were cleaned as detailed below and the resulting information used only considered patients who tested positive for the primary and secondary metabolite of interest and were prescribed the drug of interest. Furthermore, to ensure integrity of the data only patients with qualifying sample validity test information (sample pH and sample creatinine level), as described in detail in other embodiments were included in the model. […] Consequently, all patients were included in the model regardless of whether their illicit drug test was positive or negative.
Once the patient(s) meet acceptable Sample Validity test results and non-zero values, expected values based on the model can be calculated using the models described below (Equation 3 and Equation 4 detailed in other embodiments).

[1] = patient validity data set for Quetiapine models, average quetiapine dosage 299 mg
[2] = patient validity data set for Alprazolam model, average alprazolam dosage 2.26 mg
[3] = Oxycodone model population, approximately 48,800 patient results over one year, average daily dosage 36 mg
[4] = patient validity data set for Oxycodone model, average oxycodone dosage 24 mg

SMILES: OCCOCCN1CCN(C2=Nc3ccc(O)cc3Sc3ccccc32)CC1 [7-hydroxyquetiapine]
- median urine drug concentration (Alprazolam model population, approximately 256,000 patient results over nine years, average daily dosage 3 mg): 329 ng/mL
- median urine drug concentration (Quetiapine model A population, approximately 5,455 patient results collected over three years, average daily dosage 229 mg): 95 ng/mL
- median urine drug concentration (Quetiapine model B population, approximately 236 patient results, six month clinical trial, average daily dosage 310 mg): 55 ng/mL
- Urine concentration (median) [1]: 62 ng/mL

SMILES: Cc1nnc2n1-c1ccc(Cl)cc1C(c1ccccc1)=NC2 [alprazolam]
- μA, population mean of ln(PMET/SMET), ratio of primary (parent) to secondary metabolite concentration in urine: −0.463
- Urine concentration (median) [2]: 118 ng/mL

SMILES: COc1ccc2c3c1O[C@H]1C(=O)CC[C@@]4(O)[C@@H](C2)N(C)CC[C@]314 [oxycodone]
- median urine drug concentration [3]: 1421 ng/mL
- μA, population mean of ln(PMET/SMET), ratio of primary (parent) to secondary metabolite concentration in urine: −0.083
- Urine concentration (median) [4]: 1509 ng/mL

SMILES: COc1ccc2c3c1O[C@H]1C(=O)CC[C@H]4[C@@H](C2)N(C)CC[C@]314 [hydrocodone]
- median urine drug concentration (Hydrocodone model population, approximately 84,000 patient results over one year, average daily dosage 32 mg): 1395 ng/mL
- μA, population mean of ln(PMET/SMET), ratio of primary (parent) to secondary metabolite concentration in urine: 0.996
- Urine concentration (median) (patient validity data set for Hydrocodone model, average hydrocodone dosage 26 mg): 1428 ng/mL

SMILES: OCc1nnc2n1-c1ccc(Cl)cc1C(c1ccccc1)=NC2 [alpha-hydroxyalprazolam]
- Urine concentration (median) [2]: 265 ng/mL

SMILES: OCCOCCN1CCN(C2=Nc3ccccc3Sc3ccccc32)CC1 [quetiapine]
- Urine concentration (median) [1]: 69 ng/mL

SMILES: CN1CC[C@]23c4c5ccc(O)c4O[C@H]2C(=O)CC[C@@]3(O)[C@H]1C5 [oxymorphone]
- median urine drug concentration [3]: 1248 ng/mL
- Urine concentration (median) [4]: 1579 ng/mL
